# Reference: US12599136B2, “Substituted isophthalic acid diamides and their use as herbicides” (Bayer Aktiengesellschaft, priority 2020, dated 2026)
# Columns and labels:
# Type in all cases: in vivo
# [1] = tested on: Stellaria media; test: Post-emergence herbicidal action against STEME; conditions: visual assessment about 3 weeks after treatment
# How it was run: (§1)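 Greenhouse plants in sandy loam were sprayed at the one-leaf stage, 2 to 3 weeks after sowing, with WP or EC formulations as aqueous suspension or emulsion (600 to 800 l/ha water, 0.2% wetting agent). Visual damage was scored about 3 weeks later versus untreated controls, 0% = like control, 100% = dead.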
# [2] = tested on: Polygonum convolvulus; test: Pre-emergence herbicidal action against POLCO
# How it was run: (§2)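 Pre-emergence soil-surface spray of formulated compound (WP or EC; 600 to 800 l/ha; 0.2% wetting agent) over seeds sown in sandy loam. After 3 weeks under greenhouse conditions, damage is estimated visually in percent against untreated plants.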
# [3] = tested on: Pharbitis purpurea; test: Post-emergence herbicidal action against PHBPU; conditions: visual assessment about 3 weeks after treatment
# How it was run: as §1
# [4] = tested on: Abutilon theophrasti; test: Post-emergence herbicidal action against ABUTH
# How it was run: as §1
# [5] = tested on: Stellaria media; test: Pre-emergence herbicidal action against STEME
# How it was run: as §2
# [6] = tested on: Cyperus esculentus; test: Post-emergence herbicidal action against CYPES; conditions: visual assessment about 3 weeks after treatment
# Description: (§3) Seeds of monocotyledonous and dicotyledonous weed and crop plants are laid out in sandy loam soil in wood-fiber pots, covered with soil and cultivated in a greenhouse under good growth conditions. 2 to 3 weeks after sowing, the test plants are treated at the one-leaf stage. The compounds of the invention, formulated in the form of wettable powders (WP) or as emulsion concentrates (EC), are then sprayed onto the green parts of the plants in the form of an aqueous suspension or emulsion at a water application rate equivalent to 600 to 800 l/ha, with addition of 0.2% wetting agent. After the test plants have been left to stand in the greenhouse under optimal growth conditions for about 3 weeks, the action of the preparations is assessed visually in comparison to untreated controls (herbicidal action in percent (%): 100% activity=the plants have died, 0% activity=like control plants). […] The tables below illustrate, in an illustrative manner, the post-emergence herbicidal action of the compounds of the invention, the herbicidal activity being stated in percent.
# [7] = tested on: Veronica persica; test: Post-emergence herbicidal action against VERPE; conditions: 80 g/ha, visual assessment about 3 weeks after treatment
# How it was run: as §1
# [8] = tested on: Pharbitis purpurea; test: Pre-emergence herbicidal action against PHBPU; conditions: 320 g/ha; visual score after 3 weeks vs untreated controls
# How it was run: as §2
# [9] = tested on: Amaranthus retroflexus; test: Pre-emergence herbicidal action against AMARE; conditions: visual score after 3 weeks vs untreated controls
# How it was run: as §2
# [10] = tested on: Matricaria inodora; test: Pre-emergence herbicidal action against MATIN; conditions: visual score after 3 weeks vs untreated controls
# How it was run: as §2
# [11] = tested on: Alopecurus myosuroides; test: Pre-emergence herbicidal action against ALOMY; conditions: visual score after 3 weeks vs untreated controls
# How it was run: as §2
# [12] = tested on: Setaria viridis; test: Post-emergence herbicidal action against SETVI; conditions: visual assessment about 3 weeks after treatment
# How it was run: as §1
# [13] = tested on: Viola tricolor; test: Post-emergence herbicidal action against VIOTR
# How it was run: as §1
# [14] = tested on: Alopecurus myosuroides; test: Post-emergence herbicidal action against ALOMY
# How it was run: as §1
# [15] = tested on: Matricaria inodora; test: Post-emergence herbicidal action against MATIN; conditions: visual assessment about 3 weeks after treatment
# How it was run: as §1
# [16] = tested on: Polygonum convolvulus; test: Post-emergence herbicidal action against POLCO; conditions: visual assessment about 3 weeks after treatment
# Description: as §3
# [17] = tested on: Echinochloa crus-galli; test: Post-emergence herbicidal action against ECHCG; conditions: visual assessment about 3 weeks after treatment
# How it was run: as §1
# [18] = tested on: Viola tricolor; test: Pre-emergence herbicidal action against VIOTR
# How it was run: as §2
# [19] = tested on: Avena fatua; test: Post-emergence herbicidal action against AVEFA; conditions: visual assessment about 3 weeks after treatment
# How it was run: as §1
# [20] = tested on: Abutilon theophrasti; test: Pre-emergence herbicidal action against ABUTH; conditions: visual score after 3 weeks vs untreated controls
# How it was run: as §2
# [21] = tested on: Cyperus esculentus; test: Pre-emergence herbicidal action against CYPES; conditions: visual score after 3 weeks vs untreated controls
# How it was run: as §2
# [22] = tested on: Veronica persica; test: Pre-emergence herbicidal action against VERPE; conditions: 320 g/ha
# How it was run: as §2
# [23] = tested on: Setaria viridis; test: Pre-emergence herbicidal action against SETVI
# How it was run: as §2
# [24] = tested on: Amaranthus retroflexus; test: Post-emergence herbicidal action against AMARE; conditions: visual assessment about 3 weeks after treatment
# How it was run: as §1
# [25] = tested on: Echinochloa crus-galli; test: Pre-emergence herbicidal action against ECHCG; conditions: visual score after 3 weeks vs untreated controls
# How it was run: as §2
# [26] = tested on: Avena fatua; test: Pre-emergence herbicidal action against AVEFA; conditions: 320 g/ha; visual score after 3 weeks vs untreated controls
# How it was run: as §2
# [27] = tested on: Hordeum murinum; test: Pre-emergence herbicidal action against HORMU; conditions: 320 g/ha; visual score after 3 weeks vs untreated controls
# How it was run: as §2
# [28] = tested on: Hordeum murinum; test: Post-emergence herbicidal action against HORMU
# Description: as §3
# [29] = tested on: Lolium rigidum; test: Pre-emergence herbicidal action against LOLRI; conditions: 320 g/ha
# How it was run: as §2
# [30] = Dosage column 320 g/ha (heading prints 3200 g/ha)
compound,measurement,setting,value
CCCn1nnnc1NC(=O)c1ccc(C(F)(F)F)c(C(=O)N2CCCC2)c1Cl [Example 3-152],Post-emergence action against STEME in %,[1]; 5 g/ha,80%
same,Post-emergence action against STEME in %,[1]; 20 g/ha,80%
same,Post-emergence action against STEME in %,[1]; 80 g/ha,90%
same,Pre-emergence action against POLCO,[2]; 80 g/ha,80%
same,Pre-emergence action against POLCO,[2]; 320 g/ha,90%
same,Post-emergence action against PHBPU in %,[3]; 20 g/ha,80%
same,Post-emergence action against PHBPU in %,[3]; 80 g/ha,100%
same,Post-emergence action against ABUTH,[4]; 5 g/ha,90%
same,Post-emergence action against ABUTH,[4]; 20 g/ha,100%
same,Post-emergence action against ABUTH,[4]; 80 g/ha,100%
same,Pre-emergence action against STEME,[5]; 20 g/ha,100%
same,Pre-emergence action against STEME,[5]; 80 g/ha,100%
same,Pre-emergence action against STEME,[5]; 320 g/ha,100%
same,Post-emergence action against CYPES in %,[6]; 20 g/ha,80%
same,Post-emergence action against CYPES in %,[6]; 80 g/ha,80%
same,Post-emergence action against VERPE in %,[7],80%
same,Pre-emergence action against PHBPU,[8],100%
same,Pre-emergence action against AMARE,[9]; 20 g/ha,100%
same,Pre-emergence action against AMARE,[9]; 80 g/ha,100%
same,Pre-emergence action against AMARE,[9]; 320 g/ha,100%
same,Pre-emergence action against MATIN,[10]; 20 g/ha,80%
same,Pre-emergence action against MATIN,[10]; 80 g/ha,100%
same,Pre-emergence action against MATIN,[10]; 320 g/ha,100%
same,Pre-emergence action against ALOMY,[11]; 320 g/ha,80%
same,Post-emergence action against SETVI in %,[12]; 80 g/ha,100%
same,Post-emergence action against VIOTR in %,[13]; 80 g/ha,80%
same,Post-emergence action against ALOMY,[14]; 80 g/ha,80%
same,Post-emergence action against MATIN in %,[15]; 80 g/ha,90%
same,Post-emergence action against POLCO in %,[16]; 20 g/ha,90%
same,Post-emergence action against POLCO in %,[16]; 80 g/ha,90%
same,Post-emergence action against ECHCG in %,[17]; 20 g/ha,80%
same,Post-emergence action against ECHCG in %,[17]; 80 g/ha,100%
same,Pre-emergence action against VIOTR,[18]; 80 g/ha,90%
same,Pre-emergence action against VIOTR,[18]; 320 g/ha,90%
same,Post-emergence action against AVEFA in %,[19]; 80 g/ha,100%
same,Pre-emergence action against ABUTH,[20]; 20 g/ha,100%
same,Pre-emergence action against ABUTH,[20]; 80 g/ha,100%
same,Pre-emergence action against ABUTH,[20]; [30],100%
same,Pre-emergence action against CYPES,[21]; 80 g/ha,80%
same,Pre-emergence action against CYPES,[21]; 320 g/ha,90%
same,Pre-emergence action against VERPE,[22],100%
same,Pre-emergence action against SETVI,[23]; 320 g/ha,100%
same,Post-emergence action against AMARE in %,[24]; 5 g/ha,100%
same,Post-emergence action against AMARE in %,[24]; 20 g/ha,100%
same,Post-emergence action against AMARE in %,[24]; 80 g/ha,100%
same,Pre-emergence action against ECHCG,[25]; 80 g/ha,80%
same,Pre-emergence action against ECHCG,[25]; 320 g/ha,100%
same,Pre-emergence action against AVEFA,[26],100%
CCCn1nnnc1NC(=O)c1ccc(C(F)(F)F)c(C(=O)N(C)CC)c1Cl [Example 3-124],Post-emergence action against STEME in %,[1]; 5 g/ha,90%
same,Post-emergence action against STEME in %,[1]; 20 g/ha,100%
same,Post-emergence action against STEME in %,[1]; 80 g/ha,100%
same,Post-emergence action against PHBPU in %,[3]; 5 g/ha,90%
same,Post-emergence action against PHBPU in %,[3]; 20 g/ha,90%
same,Post-emergence action against PHBPU in %,[3]; 80 g/ha,100%
same,Pre-emergence action against HORMU,[27],80%
same,Post-emergence action against ABUTH,[4]; 5 g/ha,100%
same,Post-emergence action against ABUTH,[4]; 20 g/ha,100%
same,Post-emergence action against ABUTH,[4]; 80 g/ha,100%
same,Pre-emergence action against STEME,[5]; 20 g/ha,90%
same,Pre-emergence action against STEME,[5]; 80 g/ha,100%
same,Pre-emergence action against STEME,[5]; 320 g/ha,100%
same,Post-emergence action against CYPES in %,[6]; 80 g/ha,80%
same,Post-emergence action against HORMU in %,[28]; 20 g/ha,80%
same,Post-emergence action against HORMU in %,[28]; 80 g/ha,80%
same,Pre-emergence action against LOLRI,[29],80%
same,Post-emergence action against VERPE in %,[7],80%
same,Pre-emergence action against PHBPU,[8],90%
same,Pre-emergence action against AMARE,[9]; 20 g/ha,90%
same,Pre-emergence action against AMARE,[9]; 80 g/ha,100%
same,Pre-emergence action against AMARE,[9]; 320 g/ha,100%
same,Pre-emergence action against MATIN,[10]; 20 g/ha,80%
same,Pre-emergence action against MATIN,[10]; 80 g/ha,90%
same,Pre-emergence action against MATIN,[10]; 320 g/ha,90%
same,Pre-emergence action against ALOMY,[11]; 80 g/ha,80%
same,Pre-emergence action against ALOMY,[11]; 320 g/ha,90%
same,Post-emergence action against SETVI in %,[12]; 5 g/ha,90%
same,Post-emergence action against SETVI in %,[12]; 20 g/ha,90%
same,Post-emergence action against SETVI in %,[12]; 80 g/ha,100%
same,Post-emergence action against VIOTR in %,[13]; 5 g/ha,100%
same,Post-emergence action against VIOTR in %,[13]; 20 g/ha,100%
same,Post-emergence action against VIOTR in %,[13]; 80 g/ha,100%
same,Post-emergence action against ALOMY,[14]; 20 g/ha,80%
same,Post-emergence action against ALOMY,[14]; 80 g/ha,100%
same,Post-emergence action against MATIN in %,[15]; 5 g/ha,90%
same,Post-emergence action against MATIN in %,[15]; 20 g/ha,100%
same,Post-emergence action against MATIN in %,[15]; 80 g/ha,100%
same,Post-emergence action against POLCO in %,[16]; 80 g/ha,80%
same,Post-emergence action against ECHCG in %,[17]; 5 g/ha,90%
same,Post-emergence action against ECHCG in %,[17]; 20 g/ha,100%
same,Post-emergence action against ECHCG in %,[17]; 80 g/ha,100%
same,Pre-emergence action against VIOTR,[18]; 80 g/ha,80%
same,Pre-emergence action against VIOTR,[18]; 320 g/ha,100%
same,Post-emergence action against AVEFA in %,[19]; 20 g/ha,80%
same,Post-emergence action against AVEFA in %,[19]; 80 g/ha,100%
same,Pre-emergence action against ABUTH,[20]; 20 g/ha,100%
same,Pre-emergence action against ABUTH,[20]; 80 g/ha,100%
same,Pre-emergence action against ABUTH,[20]; [30],100%
same,Pre-emergence action against CYPES,[21]; 80 g/ha,80%
same,Pre-emergence action against CYPES,[21]; 320 g/ha,90%
same,Pre-emergence action against VERPE,[22],90%
same,Pre-emergence action against SETVI,[23]; 80 g/ha,90%
same,Pre-emergence action against SETVI,[23]; 320 g/ha,100%
same,Post-emergence action against AMARE in %,[24]; 5 g/ha,100%
same,Post-emergence action against AMARE in %,[24]; 20 g/ha,100%
same,Post-emergence action against AMARE in %,[24]; 80 g/ha,100%
same,Pre-emergence action against ECHCG,[25]; 80 g/ha,80%
same,Pre-emergence action against ECHCG,[25]; 320 g/ha,100%
same,Pre-emergence action against AVEFA,[26],100%
